Source: patent US20030170694A1, “Stabilized nucleic acids in gene and drug discovery and methods of use” (priority 2001, published 2003)
Values after ≈ are worked out from the molar mass of the structure shown. Read-outs that look alike come from different tables or passages of the source. Positions of bridges follow the written chain, without caps; N, C: chain ends. Non-standard residues stand in square brackets, D forms with d. Residues, ends and D or L forms follow the SMILES beside them. *: point of attachment. Ileψ(thiazoline)Cys = CC[C@H](C)[C@H](N)C1=N[C@H](C(=O)*)CS1; dOrn = NCCC[C@@H](N)C(=O)O

Assays:
[1] = test system: E. coli cells transcribing antisense RNA to rplL and rplJ (AS-rplL/J); experiment: microbe, parasite or virus in culture; type: cell-based; settings: for IC50: Escherichia coli; for Fold Increase: IC50 without IPTG vs IC50 with 400 μM IPTG; for Sensitivity (increased sensitivity observed in the presence of IPTG): statistically significant decrease in IC50 in the presence of inducer
Procedure: Antibiotics of various chemical classes and modes of action were purchased from Sigma Chemicals (St. Louis, Mo.). Stock solutions were prepared by dissolving each antibiotic in an appropriate aqueous solution based on information provided by the manufacturer. The final working solution of each antibiotic contained no more than 0.2% (w/v) of any organic solvent. To determine their potency against a bacterial strain engineered for transcription of an antisense comprising a nucleotide sequence complementary to a proliferation-required 50S ribosomal protein, each antibiotic was serially diluted two-or three-fold in growth medium supplemented with the appropriate antibiotic for maintenance of the antisense construct. At least ten dilutions were prepared for each antibiotic. 25 μL aliquots of each dilution were transferred to discrete wells of a 384-well microplate (the assay plate) using a multi-channel pipette. Quadruplicate wells were used for each dilution of an antibiotic under each treatment condition (plus and minus inducer). Each assay plate contained twenty wells for cell growth controls (growth medium replacing antibiotic), ten wells for each treatment (plus and minus inducer, in this example IPTG). Assay plates were usually divided into the two treatments: half the plate containing induced cells and an appropriate concentrations of inducer (in this example IPTG) to maintain the state of induction, the other half containing non-induced cells in the absence of IPTG.
Cells for the assay were prepared as follows. Bacterial cells containing a construct, from which transcription of antisense nucleic acid comprising a nucleotide sequence complementary to rplL and rplJ (AS-rplL/J), which encode proliferation-required 50S ribosomal subunit proteins, is inducible in the presence of IPTG, were grown into exponential growth (OD600 0.2 to 0.3) and then diluted 1:100 into fresh medium containing either 400 μM or 0 μM inducer (IPTG). These cultures were incubated at 37° C. for 2.5 hr. After a 2.5 hr incubation, induced and non-induced cells were respectively diluted into an assay medium at a final OD600 value of 0.0004. The medium contained an appropriate concentration of the antibiotic for the maintenance of the antisense construct. In addition, the medium used to dilute induced cells was supplemented with 800 μM IPTG so that addition to the assay plate would result in a final IPTG concentration of 400 μM. Induced and non-induced cell suspensions were dispensed (25 μl/well) into the appropriate wells of the assay plate as discussed previously. The plate was then loaded into a plate reader, incubated at constant temperature, and cell growth was monitored in each well by the measurement of light scattering at 595 nm. Growth was monitored every 5 minutes until the cell culture attained a stationary growth phase. For each concentration of antibiotic, a percentage inhibition of growth was calculated at the time point corresponding to mid-exponential growth for the associated control wells (no antibiotic, plus or minus IPTG). For each antibiotic and condition (plus or minus IPTG), a plot of percent inhibition versus log of antibiotic concentration was generated and the IC50 determined.

[2] = test system: E. coli transformed with IPTG-inducible antisense clones; experiment: Cell-based assay of antibiotic sensitivity in E. coli transcribing non-stabilized antisense RNA
Description: The effectiveness of the above cell-based assays in which the level or activity of a gene product required for proliferation was reduced was validated using constructs transcribing a non-stabilized antisense RNA to the proliferation required E. coli genes rplL, rplJ and rplW encoding ribosomal proteins L7/L12, L10 and L23 respectively. These proteins are essential components of the protein synthesis apparatus of the cell and as such are required for proliferation. Constructs transcribing antisense RNA to several other genes (elaD, visC, yohH, and atpE/B), the products of which are not involved in protein synthesis were used for comparison.
First, pLex5BA (Krause et al., J. Mol. Biol. 274: 365 (1997), the disclosure of which is incorporated herein by reference in its entirety) vectors containing antisense constructs to either rplW or to elaD were introduced into separate E. coli cell populations. […]
The cell populations containing vectors producing AS-elaD or AS-rplW were exposed to a range of IPTG concentrations in liquid medium to obtain the growth inhibitory dose curve for each clone (FIG. 5). First, seed cultures were grown to a particular turbidity measured by the optical density (OD) of the growth solution. […] The cells were grown for up to 15 hours and the extent of growth was determined by measuring the optical density of the cultures at 600 nm. […]

Compound	Fold Increase [1]	Sensitivity (increased sensitivity observed in the presence of IPTG) [1]	also measured
CN[C@H](CC(C)C)C(=O)N[C@H]1C(=O)N[C@@H](CC(N)=O)C(=O)N[C@H]2C(=O)N[C@H]3C(=O)N[C@H](C(=O)N[C@H](C(=O)O)c4cc(O)cc(O)c4-c4cc3ccc4O)[C@H](O)c3ccc(c(Cl)c3)Oc3cc2cc(c3O[C@@H]2O[C@H](CO)[C@@H](O)[C@H](O)[C@H]2O[C@H]2C[C@](C)(N)[C@H](O)[C@H](C)O2)Oc2ccc(cc2Cl)[C@H]1O [Vancomycin]	2	No	IC50 ([1]; read-out: IC50 (+IPTG)): 72.5 µg/mL (≈ 50.1 µM); IC50 ([1]; read-out: IC50 (−IPTG)): 145 µg/mL (≈ 100 µM)
CC1COc2c(N3CCN(C)CC3)c(F)cc3c(=O)c(C(=O)O)cn1c23 (centres unmarked) [Ofloxacin]	1	–	–
C[C@H]1c2cccc(O)c2C(=O)C2=C(O)[C@]3(O)C(=O)C(C(N)=O)=C(O)[C@@H](N(C)C)[C@@H]3[C@@H](O)[C@@H]21 [Doxycycline]	15	–	–
NC[C@H]1O[C@H](O[C@H]2[C@H](O)[C@@H](O[C@H]3O[C@H](CO)[C@@H](O)[C@H](N)[C@H]3O)[C@H](N)C[C@@H]2N)[C@H](N)C[C@@H]1O [Tobramycin]	51	Yes	–
CN(C)c1ccc(O)c2c1C[C@H]1C[C@H]3[C@H](N(C)C)C(O)=C(C(N)=O)C(=O)[C@@]3(O)C(O)=C1C2=O [Minocycline]	172	–	–
CCC[C@@H]1C[C@@H](C(=O)N[C@@H]([C@H]2O[C@H](SC)[C@H](O)[C@@H](O)[C@H]2O)[C@@H](C)O)N(C)C1 [Lincomycin]	145	Yes	–
CO[C@@]1(NC(=O)Cc2cccs2)C(=O)N2C(C(=O)O)=C(COC(N)=O)CS[C@@H]21 [Cefoxitin]	1	No	–
CC[C@H](C)[C@H](N)C1=N[C@H](C(=O)N[C@@H](CC(C)C)C(=O)N[C@H](CCC(=O)O)C(=O)N[C@H](C(=O)N[C@H]2CCCCNC(=O)[C@H](CC(N)=O)NC(=O)[C@@H](CC(=O)O)NC(=O)[C@H](Cc3cnc[nH]3)NC(=O)[C@@H](Cc3ccccc3)NC(=O)[C@H]([C@@H](C)CC)NC(=O)[C@@H](CCCN)NC2=O)[C@@H](C)CC)CS1 [Bacitracin] ({Ileψ(thiazoline)Cys}-L[dE]IK[dOrn]I[dF]H[dD]N; lactam 4-C)	1	No	IC50 ([1]; read-out: IC50 (+IPTG)): 4.68 µg/mL (≈ 3.29 µM); IC50 ([1]; read-out: IC50 (−IPTG)): 4.08 µg/mL (≈ 2.87 µM)
CO/N=C(\C(=O)N[C@@H]1C(=O)N2C(C(=O)O)=C(COC(C)=O)CS[C@H]12)c1csc(N)n1 [Cefotaxime]	1	No	–
CC(=O)O[C@H]1C[C@@]2(C)[C@@H](C[C@@H](O)[C@H]3[C@@]4(C)CC[C@@H](O)[C@@H](C)[C@@H]4CC[C@@]32C)/C1=C(\CCC=C(C)C)C(=O)O [Fusidic acid]	94	Yes	–
CN(C)[C@@H]1C(O)=C(C(N)=O)C(=O)[C@@]2(O)C(O)=C3C(=O)c4c(O)cccc4[C@@](C)(O)[C@H]3C[C@@H]12 [Tetracycline]	109	–	–
[H]/N=C(/N)N[C@H]1[C@H](O)[C@@H](O)[C@H](O[C@@H]2O[C@@H](C)[C@](O)(C=O)[C@H]2O[C@@H]2O[C@@H](CO)[C@H](O)[C@@H](O)[C@@H]2NC)[C@@H](N/C(N)=N\[H])[C@@H]1O [Streptomycin]	70	Yes	–
CCn1cc(C(=O)O)c(=O)c2ccc(C)nc21 [Nalidixic acid]	1	No	sensitivity of clone to the antibiotic ([2]; clone transcribing antisense to rplL and rplJ (AS-rplL/J)): does not show increased sensitivity
Gentamicin	141	Yes	IC50 (+IPTG) ([1]; induced AS-rplL/J cells, 400 μM IPTG): 0.01919 µg/mL; IC50 (−IPTG) ([1]; non-induced AS-rplL/J cells, 0 μM IPTG): 2.715 µg/mL
O=C(N[C@H](CO)[C@H](O)c1ccc([N+](=O)[O-])cc1)C(Cl)Cl [Chloramphenicol]	307	Yes	–
CN[C@@H]1[C@H](O)[C@H](NC)[C@H]2O[C@@]3(O)C(=O)C[C@@H](C)O[C@H]3O[C@@H]2[C@H]1O [Spectinomycin]	–	Yes	IC50 ([1]; read-out: IC50 (+IPTG)): < 0.156 µg/mL
CC[C@H]1OC(=O)[C@H](C)[C@@H](O[C@H]2C[C@@](C)(OC)[C@@H](O)[C@H](C)O2)[C@H](C)[C@@H](O[C@@H]2O[C@H](C)C[C@H](N(C)C)[C@H]2O)[C@](C)(O)C[C@@H](C)C(=O)[C@H](C)[C@@H](O)[C@]1(C)O [Erythromycin]	40	Yes	sensitivity of clones to the antibiotic ([2]; clones transcribing antisense to protein synthesis genes (L7/L12 & L10, L7/L12, L22, L18, rRNA, Elongation Factor G), initial experiments): increased sensitivity
